Test results: patent US8628961B2, “Small molecule antagonists of phosphatidylinositol-3,4,5-triphosphate (PIP3) and uses thereof” (Tufts University, priority 2010, dated 2014)
Like-named read-outs stand apart in the source and are kept apart here.

Legend:
PDK1 PH domain = PDK1 PH domain (Homo sapiens (Human), UniProt O15530); experiment: FP PIP3/PDK1 PH domain binding assay; details: for IC50: 15 nM TMR-conjugated PIP3, 100 nM PDK1 PH domain, 30 min
Text: In order to identify compounds that disrupt the interaction between PIP3 and PH domains, a high-throughput fluorescence polarization (FP)-binding assay was developed using recombinant 1-123 amino acid N-terminal fragment of human Akt1 (also referred to herein simply as Akt), encompassing the PH domain (PH123 protein), and fluorescent […] PIP3 molecule. The amino acid sequence of human Akt1 is publicly available as, for example, GenBank Accession No. NP_001014432.1 (SEQ ID NO:1), and the corresponding DNA sequence is publicly available as, for example, GenBank Accession No. NM_001014432. Briefly, 5 μM recombinant GST fusion proteins containing 1-123 a.a. N-terminal fragment of human Akt1 (PH 123) or 100 nM 441-551 a.a. region of human PDK1 were incubated with 15 nM TMR-labeled PIP3, PIP2, or PIP5 in buffer containing 50 mM Tris-HCl (pH 7.5), 150 mM NaCl, and 5 mM b-ME for 15 min at room temperature in the dark. FP values were determined using Wallac Victor 3 plate reader. For the primary screen, 50,000 diverse small molecules from Harvard Institute of Chemistry and Cell Biology were screened (iccb.med.harvard.edu). Incubations were carried out for 1 hr. For secondary assays, PIT compounds were added at various concentrations (6.25, 12.5, 25, 50, 100, 150 and 200 μM), followed by a 30 min incubation. The inhibition rates were calculated as inhibition rate=[1−(compound-treated group/control group)]×100%, and IC50 value was determined using Origin6 software (MicroCal, LLC, Northampton, Mass.).

GRP1 PH domain = GRP1 PH domain (Homo sapiens, UniProt O43739); experiment: FP PIP3/GRP1 PH domain binding assay; details: 15 nM TMR-conjugated PIP3, 100 nM GRP1 PH domain, 30 min
U87MG cells = experiment: cells; format: cell-based; details: for IC50: U87MG cells, 48 hr, ATP assay, read-out: Cell Viability IC50
Experimental: (§1) Based on the critical role of PIP3-dependent […] signaling in the regulation of cell survival, the effect of PIT-1 on the cancer cell viability was tested. Cancer cells were seeded into 96-well plates (white plates for ATP assay; black plates for fluorescent assay; clear plates for MTS assay) at the density of 5-10×10^3 cells per well in 100 μl of the appropriate media. Compounds were added at a series of concentrations and incubated for different times. For the ATP assay, a luminescence-based commercial kit (CellTiter-Glo, Promega, Madison, Wis.) was used. Thirty microliters of cell lysis/ATP detection reagent was added to each well, mixed for 10 min at room temperature, and the luminescence was measured using a Wallac Victor 3 plate reader (Perkin-Elmer, Wellesley, Mass.). For the MTS assay, a CellTiter 96 AQueous Non-Radioactive Cell Proliferation Assay Kit (Promega, Madison, Wis., USA) was used. Twenty microliters of the combined MTS/PMS solution was added into each well, incubated for 4 hr at 37° C., and the absorbance at 490 nm was measured using a Wallac Victor 3 plate reader. For the Sytox cell death assay, measuring loss of plasma membrane integrity, cells were incubated with 1 μM Sytox Green reagent (Molecular Probes, Eugene, Oreg.) for 30 min at 37° C. and the fluorescence intensity was measured using Wallac Victor 3 plate reader with excitation at 485 nm and emission at 545 nm. Next, 5 μl of 20% (v/v) Triton X-100 solution was added to each well and incubated for 1 hr at 37° C., and the signal was measured again. The ratio of values (percentage of dead cells in each well) before and after Triton X-100 treatment was calculated and normalized to the relevant controls not subjected to the cytotoxic stimuli. IC50 values were determined using Origin6 software (MicroCal, LLC, Northampton, Mass.).
To measure induction of cell death by PIT-1 derivatives, U87MG cells were incubated with PITs (1.56-300 μM) for 48 hr. Cell viability was determined using ATP assay.

Akt PH domain = Akt PH domain (Homo sapiens (Human), UniProt P31749); experiment: PH domain translocation assay (GFP fusion, plasma membrane); format: cell-based; details: PDGF stimulation
Chain of Akt PH domain (P31749 5-108): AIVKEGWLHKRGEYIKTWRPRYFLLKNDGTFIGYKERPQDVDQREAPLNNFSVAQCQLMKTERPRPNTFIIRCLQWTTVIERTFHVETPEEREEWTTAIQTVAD
Experimental: (§2) Cells were transfected with the corresponding GFP-fusion vectors, serum starved overnight, and incubated with 100 μM PITs or PIT-1 is for 2 hr, followed by stimulation with 100 ng/ml PDGF or 250 ng/ml PMA for 5 min. The translocation was analyzed using fluorescent microscope and was quantitated by counting the number of cells with translocated PH domains in five random fields.
To begin characterizing cellular activity of PITs, a PH domain translocation assay was performed, measuring PIP3-induced association of GFP-fused PH domains with the plasma membrane. […] Varnai P et al. (1999) J Biol Chem 274:10983-9. Several PH-domain-containing proteins, which are known to bind PIP3 specifically and efficiently, were examined. […] Oikawa T et al. (2004) Nat Cell Biol 6:420-6.

Btk PH domain = Btk PH domain (Homo sapiens (Human), UniProt Q06187); experiment: as above; format: cell-based; details: PDGF stimulation
Chain of Btk PH domain (Q06187 3-133): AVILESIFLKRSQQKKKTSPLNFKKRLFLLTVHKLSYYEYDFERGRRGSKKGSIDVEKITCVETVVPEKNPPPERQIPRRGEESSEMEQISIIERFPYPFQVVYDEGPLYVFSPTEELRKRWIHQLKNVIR
Experimental: as §2
To begin characterizing cellular activity of PITs, a PH domain translocation assay was performed, measuring PIP3-induced association of GFP-fused PH domains with the plasma membrane. This method provides useful means for monitoring status of the PH domain/PIP3 binding in the intact cells. Varnai P et al. (1999) J Biol Chem 274:10983-9. Several PH-domain-containing proteins, which are known to bind PIP3 specifically and efficiently, were examined. […] Oikawa T et al. (2004) Nat Cell Biol 6:420-6.

PI3K-PDK1-Akt pathway = experiment: PIP3-regulated phosphorylation events in U87MG cells; format: cell-based, human
Experimental: The effect of PIT-1 on PIP3-mediated signaling was examined in U87MG glioblastoma cells, which show elevated basal levels of PIP3 due to the loss of PTEN. Pore N et al. (2003) Cancer Res 63:236-41.

[1] = test system: multiple cancer cell lines; experiment: Cancer cell viability, MTS or ATP assays; format: cell-based; details: dose- and time-dependent
Experimental: as §1

[2] = test system: SUM159 cells transfected with VAV2 or WAVE2; experiment: Wound migration of VAV- or WAVE-overexpressing cells; format: cell-based, human; details: PDGF, 8 hr
Experimental: SUM159 cells were transfected with VAV2 or WAVE2. Scratch wound was generated in cell monolayer, followed by treatment with PIT-1 (100 μM) in the presence of PDGF (100 ng/ml) stimulation for 8 hr. The inhibitory effect of PITs on VAV- or WAVE-induced cell migration was calculated according to the width of wound. The width of wounded cell monolayers was measured in five random fields.

Chain of PDK1 PH domain (O15530 441-551): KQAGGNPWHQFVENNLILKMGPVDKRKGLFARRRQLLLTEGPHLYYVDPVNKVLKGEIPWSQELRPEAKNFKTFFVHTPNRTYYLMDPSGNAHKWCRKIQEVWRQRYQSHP

O=C(NC(=S)Nc1cc([N+](=O)[O-])cc(Cl)c1O)c1ccccc1 [PIT-1]
IC50 (PDK1 PH domain): 66.7 ± 3.5 µM
inhibition of binding of PIP3 to the PH domain of PDK1 (PDK1 PH domain; FIG. 4): inhibited binding of PIP3 to the PH domain of PDK1
IC50 (GRP1 PH domain): 40.3 ± 2.8 µM
killing of U87MG cells compared with LY294002 (U87MG cells): more pronounced than that by the PI3K inhibitor LY294002
IC50 (U87MG cells; Homo sapiens, U-87 MG): 39.9 ± 3.2 µM
plasma membrane translocation of Akt PH domain (Akt PH domain): significantly inhibited the translocation
plasma membrane translocation of Btk PH domain (Btk PH domain): significantly inhibited the translocation
PI3K-PDK1-Akt signaling in U87MG cells (PI3K-PDK1-Akt pathway): suppressed activity of the PI3K-PDK1-Akt pathway
viability of multiple cancer cell lines [1]: reduced viability of multiple cancer cell lines
inhibition of migration in VAV- and WAVE-overexpressing cells compared to control cells [2]: larger degree of inhibition of cell migration

O=C(NC(=O)c1ccccc1)Nc1cc([N+](=O)[O-])cc(Cl)c1O [PIT-1i-1, reference compound]
IC50 (PDK1 PH domain): > 200 µM
IC50 (GRP1 PH domain): > 200 µM
IC50 (U87MG cells): > 200 µM
plasma membrane translocation of Akt PH domain (Akt PH domain): inactive
plasma membrane translocation of Btk PH domain (Btk PH domain): inactive
PI3K-PDK1-Akt signaling in U87MG cells (PI3K-PDK1-Akt pathway): failed to inhibit PDK1/Akt signaling
viability of multiple cancer cell lines [1]: did not induce loss of viability
inhibition of migration in VAV- and WAVE-overexpressing cells compared to control cells [2]: lacked activity

COc1c(Cl)cc([N+](=O)[O-])cc1NC(=S)NC(=O)c1ccccc1 [PIT-1i-2]
IC50 (PDK1 PH domain): > 200 µM
IC50 (GRP1 PH domain): > 200 µM
IC50 (U87MG cells): > 200 µM
plasma membrane translocation of Akt PH domain (Akt PH domain): inactive
plasma membrane translocation of Btk PH domain (Btk PH domain): inactive
PI3K-PDK1-Akt signaling in U87MG cells (PI3K-PDK1-Akt pathway): failed to inhibit PDK1/Akt signaling
viability of multiple cancer cell lines [1]: did not induce loss of viability
inhibition of migration in VAV- and WAVE-overexpressing cells compared to control cells [2]: lacked activity
